Assays:
Solubilities = format: physicochemical; conditions: for Solubility in DMSO: DMSO / dimethyl sulfoxide
[1] = Acute toxicity after a single oral administration in mice (Miller & Tainter); format: in vivo; conditions: mouse, in vivo, mice, mortality noted at the end of 7 days, read-out: LD50 approximate
Procedure: (§1) (1) Toxicology (acute toxicity after a single oral administration in mice by the method of Miller & Tainter (Proc. Soc. Exper. Biol. Med., 1944, 57, 261)).
(§2) The products are administered in a suspension of Tween 80+distilled water. The mortality is noted at the end of 7 days. The following table summarizes the results obtained: […]

mice = assay: as above; format: in vivo; conditions: 1000 mg/kg, 10 mice per lot, suspension of Tween 80 + distilled water
Procedure: as §1, §2

rats = assay: Cutaneous passive anaphylaxis test; format: in vivo; conditions: Rattus norvegicus, po; per os, 10 minutes before intravenous injection of antigen + stain; tested at 30, 5, 1 and 0.2 mg/kg, lots of 10 rats; suspension in Tween and water; read-out: ED50 (dose which reduces by one-half the leakage of the stain as compared with the controls)
Procedure: The results are obtained on the cutaneous passive anaphylaxis test in accordance with the method of Broeklehurst W. E. in Handbook of Experimental Immunology, Editor Weiz D. M., Blackwell Scientific Publications, Oxford and Edinborough, pages […] (1967).
(a) Prepare the antiserum on rats sensitized by antigen; inject it intradermally.
(b) Leave a waiting time of 24 to 48 hours.
(c) Administration of the product to be tested per os 10 minutes before operation (d) (intravenous simultaneously with d).
(d) Intravenous injection of the antigen+stain.
(e) Sacrifice 30 minutes afterwards and visualize the antigen-antibody reaction by the leakage of the stain due to the increase of the capillary permeability under the combined influence of histamine and SRSA.
This action is expressed as ED50, i.e., the dose which reduces by one-half the leakage of the stain as compared with the controls.
The tests were carried out in succession with 30, 5, 1 and 0.2 mg/kg on homogeneous lots of 10 rats, with due consideration of their insolubility in water. These compounds are administered in suspension in Tween™ and water.

Row | SMILES | Solubility in ethanol (Solubilities; ethanol) | Solubility in water (Solubilities) | LD50 at 168 h [1] | Mortality at end of 7th day (mice) | ED50 (rats) | Solubility in dimethyl acetamid (Solubilities; dimethyl acetamid) | Solubility in ethanol (in words) (Solubilities; ethanol) | Solubility in methyl pyrrolidone (Solubilities) | Solubility in DMSO (Solubilities)
1 | Nc1nc(-c2ccc(Cl)cc2)cs1 [4-parachlorophenyl-2-amino-thiazole] | 15% | insoluble |  |  |  |  |  |  | 
2 | CCOC(=O)C(=O)Nc1nc(-c2ccccc2)cs1 [Example 1, Ethyl-(4-phenyl-2-thiazolyl)-oxamate] |  | insoluble | > 1000 mg/kg | 1 | 1 mg/kg | 20% | insoluble | 25% | 
3 | CCOC(=O)C(=O)Nc1nc(-c2ccc(Cl)cc2)cs1 [Example 2, Ethyl-(4-p-chlorophenyl-2-thiazolyl)-oxamate] |  | insoluble | > 1000 mg/kg | 0 |  |  | insoluble | 4% | 1%
4 | CCOC(=O)C(=O)Nc1nc(-c2ccc(OC)cc2)cs1 [Example 3, Ethyl-(4-paramethoxyphenyl-2-thiazolyl)-oxamate] |  | insoluble | > 1000 mg/kg | 1 | 2 mg/kg |  | insoluble | 50% | 50%
5 | Cc1cccc(-c2csc(NC(=O)C(=O)OCc3ccccc3)n2)c1 [Example 4, Benzyl-(4-metamethylphenyl-2-thiazolyl)-oxamate] |  |  | > 1000 mg/kg | 1 |  |  |  |  | 
6 | O=C(Nc1nc(-c2ccccc2Br)cs1)C(=O)OCc1ccccc1 [Example 5, Benzyl-(4-orthobromophenyl-2-thiazolyl)-oxamate] |  |  | > 1000 mg/kg | 2 |  |  |  |  | 

From patent US4246271A, “4-Phenyl-2-thiazolyl-oxamates useful in the treatment of asthma” (priority 1978, dated 1981)
